Legend:
Assay in all cases: relative viability (nuclei count vs DMSO), 5 days (fraction); higher = more cells survive
[1] = tested on: SW 900
Outline: (§1)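 Cells from lung cancer lines were seeded into 1536-well plates and, one day later, dosed by pin tool. Treatments were either a single drug or a fixed dose of an anchor drug with five library-drug doses (not always all listed) in √10 steps. After 5 days, nuclei were stained in a one-step fixation (final 0.05% Triton X-100, 1% formaldehyde, 1 ug/ml Hoechst) and counted on 4× images, and relative viability is the treated-to-vehicle nuclei ratio, as the median of duplicate plates.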

[2] = tested on: H3255
Outline: as §1

[3] = tested on: NCI-H1563
Outline: as §1

[4] = tested on: NCI-H1650
Outline: as §1

[5] = tested on: LOU-NH91
Outline: as §1

[6] = tested on: NCI-H2023
Outline: as §1

[7] = tested on: EPLC-272H
Outline: as §1

[8] = tested on: NCI-H1734
Outline: as §1

[9] = tested on: 201T
Outline: as §1

[10] = tested on: NCI-H2085
Outline: as §1

[11] = tested on: RERF-LC-KJ
Outline: as §1

[12] = tested on: COR-L23
Outline: as §1

[13] = tested on: NCI-H2170
Outline: as §1

[14] = tested on: NCI-H647
Outline: as §1

[15] = tested on: NCI-H1993
Outline: as §1

[16] = tested on: NCI-H3122
Outline: as §1

[17] = tested on: NCI-H441
Outline: as §1

[18] = tested on: NCI-H1793
Outline: as §1

[19] = tested on: HCC-44
Outline: as §1

[20] = tested on: PC-14
Outline: as §1

[21] = tested on: NCI-H520
Outline: as §1

[22] = tested on: NCI-H2405
Outline: as §1

[23] = tested on: NCI-H2347
Outline: as §1

Structure (SMILES): O=C(O)c1ccc(-c2c[nH]c3ncc(-c4ccccc4)cc23)cc1C1CCCC1 + CCNC(=O)c1noc(-c2cc(C(C)C)c(O)cc2O)c1-c1ccc(CN2CCOCC2)cc1 [Luminespib] (partner 0.01 µM)
- relative viability ([1]; first compound 0.04 µM): 0.185
- relative viability ([1]; first compound 0.1265 µM): 0.171
- relative viability ([1]; first compound 0.4 µM): 0.175
- relative viability ([1]; first compound 1.265 µM): 0.156
- relative viability ([2]; first compound 0.04 µM): 0.978
- relative viability ([2]; first compound 0.1265 µM): 0.983
- relative viability ([2]; first compound 0.4 µM): 0.855
- relative viability ([2]; first compound 1.265 µM): 0.778
- relative viability ([3]; first compound 0.04 µM): 0.489
- relative viability ([3]; first compound 0.1265 µM): 0.599
- relative viability ([3]; first compound 0.4 µM): 0.42
- relative viability ([3]; first compound 1.265 µM): 0.508
- relative viability ([4]; first compound 0.04 µM): 0.194
- relative viability ([4]; first compound 0.1265 µM): 0.17
- relative viability ([4]; first compound 0.4 µM): 0.196
- relative viability ([4]; first compound 1.265 µM): 0.197
- relative viability ([5]; first compound 0.04 µM): 0.323
- relative viability ([5]; first compound 0.1265 µM): 0.33
- relative viability ([5]; first compound 0.4 µM): 0.278
- relative viability ([5]; first compound 1.265 µM): 0.472
- relative viability ([6]; first compound 0.04 µM): 0.694
- relative viability ([6]; first compound 0.1265 µM): 1.01
- relative viability ([6]; first compound 0.4 µM): 0.75
- relative viability ([6]; first compound 1.265 µM): 0.34
- relative viability ([7]; first compound 0.04 µM): 0.628
- relative viability ([7]; first compound 0.1265 µM): 0.367
- relative viability ([7]; first compound 0.4 µM): 0.21
- relative viability ([7]; first compound 1.265 µM): 0.0951
- relative viability ([8]; first compound 0.04 µM): 0.186
- relative viability ([8]; first compound 0.1265 µM): 0.194
- relative viability ([8]; first compound 0.4 µM): 0.224
- relative viability ([8]; first compound 1.265 µM): 0.202
- relative viability ([9]; first compound 0.04 µM): 1.08
- relative viability ([9]; first compound 0.1265 µM): 1.04
- relative viability ([9]; first compound 0.4 µM): 1.07
- relative viability ([9]; first compound 1.265 µM): 0.987
- relative viability ([10]; first compound 0.04 µM): 0.441
- relative viability ([10]; first compound 0.1265 µM): 0.422
- relative viability ([10]; first compound 0.4 µM): 0.488
- relative viability ([10]; first compound 1.265 µM): 0.31
- relative viability ([11]; first compound 0.04 µM): 1.32
- relative viability ([11]; first compound 0.1265 µM): 1.19
- relative viability ([11]; first compound 0.4 µM): 1.1
- relative viability ([11]; first compound 1.265 µM): 0.645
- relative viability ([12]; first compound 0.04 µM): 0.656
- relative viability ([12]; first compound 0.1265 µM): 0.742
- relative viability ([12]; first compound 0.4 µM): 0.612
- relative viability ([12]; first compound 1.265 µM): 0.407
- relative viability ([13]; first compound 0.04 µM): 0.745
- relative viability ([13]; first compound 0.1265 µM): 0.804
- relative viability ([13]; first compound 0.4 µM): 0.794
- relative viability ([13]; first compound 1.265 µM): 0.491
- relative viability ([14]; first compound 0.04 µM): 0.148
- relative viability ([14]; first compound 0.1265 µM): 0.152
- relative viability ([14]; first compound 0.4 µM): 0.18
- relative viability ([14]; first compound 1.265 µM): 0.16
- relative viability ([15]; first compound 0.04 µM): 0.912
- relative viability ([15]; first compound 0.1265 µM): 0.831
- relative viability ([15]; first compound 0.4 µM): 0.795
- relative viability ([15]; first compound 1.265 µM): 0.612
- relative viability ([16]; first compound 0.04 µM): 0.0905
- relative viability ([16]; first compound 0.1265 µM): 0.0913
- relative viability ([16]; first compound 0.4 µM): 0.0809
- relative viability ([16]; first compound 1.265 µM): 0.0888
- relative viability ([17]; first compound 0.04 µM): 0.332
- relative viability ([17]; first compound 0.1265 µM): 0.431
- relative viability ([17]; first compound 0.4 µM): 0.266
- relative viability ([17]; first compound 1.265 µM): 0.298
- relative viability ([18]; first compound 0.04 µM): 0.19
- relative viability ([18]; first compound 0.1265 µM): 0.166
- relative viability ([18]; first compound 0.4 µM): 0.151
- relative viability ([18]; first compound 1.265 µM): 0.148
- relative viability ([19]; first compound 0.04 µM): 1.08
- relative viability ([19]; first compound 0.1265 µM): 1.44
- relative viability ([19]; first compound 0.4 µM): 0.868
- relative viability ([19]; first compound 1.265 µM): 0.448
- relative viability ([20]; first compound 0.04 µM): 0.225
- relative viability ([20]; first compound 0.1265 µM): 0.129
- relative viability ([20]; first compound 0.4 µM): 0.141
- relative viability ([20]; first compound 1.265 µM): 0.134
- relative viability ([21]; first compound 0.04 µM): 0.223
- relative viability ([21]; first compound 0.1265 µM): 0.195
- relative viability ([21]; first compound 0.4 µM): 0.211
- relative viability ([21]; first compound 1.265 µM): 0.217
- relative viability ([22]; first compound 0.04 µM): 0.778
- relative viability ([22]; first compound 0.1265 µM): 0.831
- relative viability ([22]; first compound 0.4 µM): 0.579
- relative viability ([22]; first compound 1.265 µM): 0.535
- relative viability ([23]; first compound 0.04 µM): 0.444
- relative viability ([23]; first compound 0.1265 µM): 0.794
- relative viability ([23]; first compound 0.4 µM): 0.275
- relative viability ([23]; first compound 1.265 µM): 0.408
